Measurements published in patent US20110243993A1, “Method for diagnosing and creating immunogenic tolerance in contact allergy and other epithelial immunotoxicological ailments” (priority 2010, published 2011).
“Also recorded” adds a separate entry of the source. Each block holds one molecule with its values, some of them ahead of it.

Columns and labels:
[1] = mouse, in vivo; cited from earlier work
[2] = tested on: serum amyloid P component (SAP); experiment: ELISA detection of serum amyloid protein (SAP) in sera of hapten-exposed mice; conditions: mice exposed on skin, booster dose on day 10
Protocol: Extreme sensitizers: Oxazolone (4-Ethoxymethylene-2-phenyl-2-oxazolin-5-one, 1.4 mM) CDNB (1-Chloro-2,4-dinitrobenzene, 7.4 mM)); Strong sensitizers: dBBr (48.6 mM), Glyoxal (ethane-1,2-dione, 1.27 M). DMSO was used as control. All chemicals are purchased from Sigma-Aldrich (Stockholm, Sweden).
Apply 25 μl of the solution to the back of both ears (25 μl on each ear), once daily, on day 1, 2 and 3. Apply a booster dose on day 10 (if necessary). Sacrifice the mice on day 6 (or day 13 if a booster dose is used) by anesthetization with isoflurane (Kent Scientific Corporation, Torrington, Conn., USA) followed by inhalation of carbon dioxide (AGA, Lidingö, Sverige). To collect blood: Use a 1 ml syringe (B. Braun Medical Inc., Bethlehem, Pa., USA) with a 0.4 mm×12 mm injection needle (B. Braun Medical Inc., Bethlehem, Pa., USA). Place the tip of the needle just below the breastbone so that the syringe is linear to the abdomen. Insert the needle just below the breastbone and press it towards the heart. When inside the heart, withdraw blood. It is important to loosen the piston a little from the bottom of the syringe before inserting into the mouse. Carefully rotate the syringe during withdrawal to avoid clotting. […]
The SAP Mouse, ELISA kit 96 tests, quantitative (Alpha Diagnostics International Inc., San Antonio, Tex., USA) is used. […]

human keratinocytes = conditions: for blebbing response of keratinocytes: compound added to human keratinocytes, vehicle DMSO
From the text: (§1) The third step is that this residue (C54) is situated in a stretch of K5 that has been shown through its interactions with desmoplakin, to be vital in maintaining the integrity of the desmosome. It is known that epithelial cells with a compromised cell-cell (and/or cell-matrix) contact undergo apoptosis (“anoikis”). […] Basal keratinocytes consists of up to 35% of insoluble keratin intermediate filaments (KIFs). As basal keratinocytes occasionally undergo apoptosis, a mechanism of waste removal of the debris of insoluble keratins has evolved. […] The keratin bodies bleb off the cells.

[3] = tested on: anti-nuclear antibodies (ANA); experiment: Levels of anti-nuclear antibodies (ANA) after contact with sensitizing compounds; conditions: contact with sensitizing compound
K5 and K14 = experiment: Western blot of blebs using K5 and K14 antibodies; format: cell-based, human; conditions: blebs from hapten-exposed keratinocytes
From the text: Elevated levels of ANA are common features in various autoimmune diseases such as Sjögrens syndrome (SS), rheumatoid arthritis (RA) and systemic lupus erythematosus (SLE).
as §1

[4] = naïve mice; cited from earlier work
keratins = experiment: Cross-linking of bleb proteins by bidentate haptens; parameters: species or system human; conditions: bidentate hapten
From the text: In SDS-PAGE experiments it was shown that thiol-, amine-, and arginine-reactive sensitizers give rise to blebs that contain the same protein bands. In this step, it is thus shown that by adding haptens to keratinocytes, the haptens induce expulsion of a high amount of cryptic epitopes that are normally concealed from the immune system through their intracellular location and/or neoepitopes consisting of haptenated/differently processed peptides and proteins. It was also shown, using a LTQ-FT-ICR mass spectrometer coupled to a nanospray source, that the blebs contain other proteins, for example peptidyl-prolyl cis-trans isomerase A, stathmin, calmodulin, cofilin-1, transgelin-2, 14-3-3 protein sigma, annexin A2, tubulin, keratin 6A 6B 6C, transitional endoplasmic reticulum ATPase, endoplasmin, and importin-5. […] It was also shown that the sensitizing compounds also modify other proteins and that these proteins are released in blebs, as visualized by fluorescent bands on SDS-gels.

cysteine 54 (C54) of K5 = biological target: T1, cysteine 54 (C54) of K5 (Homo sapiens, UniProt P13647); experiment: Identification of haptenation site with LTQ-FT-ICR mass spectrometer
T1 construct: endogenous in cells; host or cells: living (primary) human keratinocytes and intact full-thickness human skin
T1 sequence (P13647 1-590): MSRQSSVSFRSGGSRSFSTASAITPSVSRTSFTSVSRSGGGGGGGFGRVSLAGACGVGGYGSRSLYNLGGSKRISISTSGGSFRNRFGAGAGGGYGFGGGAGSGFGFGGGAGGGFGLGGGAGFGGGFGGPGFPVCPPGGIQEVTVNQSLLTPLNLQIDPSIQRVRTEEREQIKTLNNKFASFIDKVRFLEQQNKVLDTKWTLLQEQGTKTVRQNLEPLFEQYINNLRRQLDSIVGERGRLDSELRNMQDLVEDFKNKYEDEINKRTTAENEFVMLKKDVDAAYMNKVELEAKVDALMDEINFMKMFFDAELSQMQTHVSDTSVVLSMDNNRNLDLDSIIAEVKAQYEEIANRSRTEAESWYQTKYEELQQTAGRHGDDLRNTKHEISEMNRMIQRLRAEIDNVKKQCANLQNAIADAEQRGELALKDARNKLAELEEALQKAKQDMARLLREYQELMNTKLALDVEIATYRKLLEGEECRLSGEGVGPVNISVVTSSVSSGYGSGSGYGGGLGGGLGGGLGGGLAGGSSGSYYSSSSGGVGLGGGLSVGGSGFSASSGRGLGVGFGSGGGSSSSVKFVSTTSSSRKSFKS
T1 sequence (P02533 1-472 partner): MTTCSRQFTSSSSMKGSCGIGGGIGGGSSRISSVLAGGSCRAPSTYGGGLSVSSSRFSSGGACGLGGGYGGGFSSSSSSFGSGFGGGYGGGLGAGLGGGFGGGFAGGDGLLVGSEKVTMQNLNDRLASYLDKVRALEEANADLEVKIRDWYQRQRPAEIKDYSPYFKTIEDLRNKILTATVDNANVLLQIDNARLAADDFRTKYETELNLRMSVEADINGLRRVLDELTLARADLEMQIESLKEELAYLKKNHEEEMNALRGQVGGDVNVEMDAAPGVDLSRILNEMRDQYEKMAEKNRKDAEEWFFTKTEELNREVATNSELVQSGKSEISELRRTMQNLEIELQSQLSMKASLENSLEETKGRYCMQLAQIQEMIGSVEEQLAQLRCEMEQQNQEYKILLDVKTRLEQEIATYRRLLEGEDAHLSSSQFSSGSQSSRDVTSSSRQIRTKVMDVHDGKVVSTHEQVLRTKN
From the text: The second step is that the molecules enter the basal cells. Since the extracellular environment is oxidizing, extracellular cysteines are mostly oxidized to disulfides. However, it is in the reduced, intracellular environment that the haptens find reduced thiols to react with. Once inside the cells the compounds will react with available (i.e. not sterically hindered) reduced cysteines (thiol groups). […] Furthermore, it was identified that one of the cysteines that the haptens react with is cysteine 54 (C54) of K5. […] One of the reasons for intense reaction at C54 is presumably its high effective concentration just inside the cell membrane. It is vital in the life of an organism to fail-safe its epithelial integrity, and the bundling of the KIFs ensures a high effective local concentration of the peptide stretch containing C54, ensuring strong welding of the cell to its surroundings. Amino acids nearby in the primary sequence are consequently also located within physical reach of an incoming compound in similarly high effective concentrations. Looking at blebbing brought on by amine- and arginine-reactive compounds from this angle, the residues K71 and R72 are the closest candidates in the primary sequence.

[5] = Induction of oral tolerance in humans allergic to cinnamic aldehyde; format: in vivo, human; conditions: once a day for 5-100 days, vs placebo (tap water)
From the text: Peptides (including, but not limited to): 1: [Ace]-[…]-[Amide]; 2: [Ace]-[…]-[Amide], 3: [Ace]-[…]-[Amide]. The peptides 1 and 2 represent sequences from keratin 5 and peptide 3 is derived from keratin 14; however, it is the intention that the invention also includes peptides and/or proteins from other proteins, e.g. such as those found in the blebs from keratinocytes that have been exposed to haptens.
Preparation of amino acid containing epitope targets as described in example 3.
Of 20 individuals with a confirmed allergy to the hapten cinnamic aldehyde, 10 are given a test solution of 0.5 mg to 10 g amino acid containing epitope target 1 once a day for 5-100 days. The other 10 individuals are given a placebo (i.e. tap water) to drink according to the same administration scheme and time table as described above. The antibody and T cell epitope mapping profiles for each individual are then evaluated according to procedures in example 4 and 5. Each individual is also patch-tested with cinnamic aldehyde.

Molecule: O=c1[nH]sc2ccccc12 [1,2-Benzisothiazolin-3-one]
sensitizer class by EC3-value [1]: Moderate (key: Extreme: For extreme sensitizers (EC3<0.1%); Strong: For strong sensitizers (0.1%<EC3<1%); Moderate: For moderate sensitizers (1%<EC3<10%); Weak: For weak sensitizers (EC3>10%))

Molecule: O=[N+]([O-])c1ccc(Cl)c([N+](=O)[O-])c1 [CDNB, 1-Chloro-2,4-dinitrobenzene]
levels of SAP protein in sera [2]: increased levels
sensitizer class by EC3-value [1]: Extreme (key: Extreme: For extreme sensitizers (EC3<0.1%); Strong: For strong sensitizers (0.1%<EC3<1%); Moderate: For moderate sensitizers (1%<EC3<10%); Weak: For weak sensitizers (EC3>10%))
blebbing response of keratinocytes (human keratinocytes): provoke a blebbing response
levels of anti-nuclear antibodies (ANA) [3]: increased levels

Molecule: C=O [Formaldehyde]
sensitizer class by EC3-value [1]: Strong (key: Extreme: For extreme sensitizers (EC3<0.1%); Strong: For strong sensitizers (0.1%<EC3<1%); Moderate: For moderate sensitizers (1%<EC3<10%); Weak: For weak sensitizers (EC3>10%))

Molecule: O=CC=O [Glyoxal, ethane-1,2-dione]
levels of SAP protein in sera [2]: increased levels
keratins (K5 and K14) in blebs (K5 and K14): contain K5 and K14; also recorded: also contain keratins
sensitizer class by EC3-value [1]: Strong (key: Extreme: For extreme sensitizers (EC3<0.1%); Strong: For strong sensitizers (0.1%<EC3<1%); Moderate: For moderate sensitizers (1%<EC3<10%); Weak: For weak sensitizers (EC3>10%))
blebbing response of keratinocytes (human keratinocytes): provoke a blebbing response
levels of anti-nuclear antibodies (ANA) [3]: increased levels

Molecule: CCOC=C1N=C(c2ccccc2)OC1=O [Oxazolone, 4-Ethoxymethylene-2-phenyl-2-oxazolin-5-one]
keratins (K5 and K14) in blebs (K5 and K14): contain K5 and K14; also recorded: also contain keratins
blebbing response of keratinocytes (human keratinocytes): provoke a blebbing response
protection against the hapten after tolerance induction [4]: some protection
levels of anti-nuclear antibodies (ANA) [3]: increased levels

Molecule: O=CCc1ccccc1 [Phenylacetaldehyde]
sensitizer class by EC3-value [1]: Moderate (key: Extreme: For extreme sensitizers (EC3<0.1%); Strong: For strong sensitizers (0.1%<EC3<1%); Moderate: For moderate sensitizers (1%<EC3<10%); Weak: For weak sensitizers (EC3>10%))

Molecule: CCCCCCCCCCCCOS(=O)(=O)[O-].[Na+] [SDS, Sodium dodecyl sulphate]
cellular response other than blebbing (human keratinocytes; human keratinocytes exposed to compound): cells seem to “dissolve”

Molecule: Cc1c(CBr)n2c(CBr)c(C)c(=O)n2c1=O [dBBr, dibromobimane]
cross links between proteins (keratins): cause cross links between for example keratins
levels of anti-nuclear antibodies (ANA) [3]: increased levels

covalent modification of C54 of K5 (cysteine 54 (C54) of K5; intact, full-thickness human skin): modifies C54 of K5
Molecule: Cc1c(C)n2c(CBr)c(C)c(=O)n2c1=O [mBBr]
covalent modification of C54 of K5 (cysteine 54 (C54) of K5; living human keratinocytes): modify C54 of K5; also recorded: modifies C54 of K5

Molecule: [Ni] [nickel]
protection against the hapten after tolerance induction [4]: some protection

Molecule: CCCCCCC(C=O)=Cc1ccccc1 [α-Hexyl-cinnamicaldehyde]
sensitizer class by EC3-value [1]: Weak (key: Extreme: For extreme sensitizers (EC3<0.1%); Strong: For strong sensitizers (0.1%<EC3<1%); Moderate: For moderate sensitizers (1%<EC3<10%); Weak: For weak sensitizers (EC3>10%))

Molecule: [Ace]-VSLGGACGAGGYG-[Amide] [amino acid containing epitope target 1]
antibodies and T cells against the amino acid containing epitope target [5]: less antibodies and T cells
reaction to cinnamic aldehyde in the patch test [5]: less reaction
